Reference: PubChem BioAssay AID463229 (Broad Institute, 2010)

tested on: INS-1E rat beta cells, no cytokines, CellTiter-Glo ATP, 48 h; assay: cytokine-free beta-cell viability effect – INS-1E rat cells, ATP luminescence, cherry pick, counter-screen for beta-cell apoptosis protection project, dose response (AID 463229)

SMILES	AC50 [µM]
COc1ccc(CNCCC(c2ccc(OC(C)C)cc2)c2ccccc2OC)cc1 (stereo not given)	12.2
CC(C)CCCCCCNC(=S)Nc1ccc(S(=O)(=O)N2CCOCC2)cc1	12.6
O=C(OCn1ncc(Cl)c(Cl)c1=O)c1ccccc1Cl	7.84
O=C(Nc1nc(-c2ccccn2)cs1)c1ccccc1-n1cnnn1	5.32
Cc1cc(/C=N/n2cnnc2)c(C)n1-c1ccc(OCc2ccccc2F)cc1	4.05
CCOC(=O)COc1ccc2ccccc2c1/C=C/[N+](=O)[O-]	10.6
Cc1nc(N/N=C/c2ccccn2)sc1C	9.42
O=C(Nc1ccc(S(=O)(=O)N2CCOCC2)cc1)c1ccc([N+](=O)[O-])s1	6.8
O=C(Oc1c(CN2CCOCC2)cc(Cl)c2cccnc12)c1ccc(F)cc1	14
COc1ccc(Cc2nnc(N/N=C/c3ccccc3O)[nH]c2=O)cc1OC	4.32
CCCN(CCC)c1nc(-c2ccccn2)nc2ccccc12	4.34
Cc1ncc(CO)c(/C=N/Nc2ccc(C(F)(F)F)cn2)c1O	5.17
Cc1ccc(NC(=O)c2cc(S(=O)(=O)NCCC3=CCCCC3)ccc2F)cc1	7.48
O=[N+]([O-])c1ccc(S(=O)(=O)c2ccccc2)nc1	10.6
CCN1CCN(c2ccc(S(=O)(=O)N3CCCCC3)cc2NC(=O)c2ccc([N+](=O)[O-])s2)CC1	6.94
Cc1ccc(Nc2c3c(nc4ccccc24)CCC3)cc1	16
CCN(CC)c1ccc(/C=N/NC(=O)c2cccc(S(=O)(=O)Nc3ccccc3OC)c2)c(O)c1	1.62
O=C1C=C(N2CCOCC2)c2ccccc2C1=O	6.13
O=C(N/N=C/c1c(O)ccc2ccccc12)c1[nH]ncc1Br	2.16
CCN(CC)CCN1c2ccccc2Sc2ccc3ccccc3c21	18.1
Oc1ccccc1/C=N/Nc1ncc(Br)cn1	19.7
COc1ccc(-[n+]2c(C)cc(/C=C3\Sc4ccccc4N3C)cc2C)cc1	< 0.195
Cc1ccc(NS(=O)(=O)c2ccc(Cl)c(NC(=S)NC(=O)C3CCCCC3)c2)cc1Cl	14
COc1cc2c(cc1OC)-c1c(OC)c(OC)c(OC)c3ccnc(c13)C2=O	6.65
CC(C)(C)C1CCC2(CC1)C(C#N)=C(SCC(=O)NC1CCCCC1)NC(=O)C2C#N (stereo not given)	15.9
CN(C)C1=NC[C@H](Cc2ccccc2)N1CCCC1CCCCC1	13.6
Cc1ccc(N2C(=O)NC(=O)/C(=C\C=C\c3ccco3)C2=O)cc1C	5.85
Cc1cc(C)c2nc(NNC(=O)c3ccc(S(=O)(=O)N4CCCC(C)C4)cc3)sc2c1 (stereo not given)	4.52

SMILES	AC50 [µM]
CC1(C)Cc2c(c(N3CCOCC3)nc3sc4c(NN)ncnc4c23)CS1	6.38
CCc1ccc2[nH]c3nc(N/N=C/c4ccc(O)cc4O)nnc3c2c1	21.2
COc1ccc2cc(C(=O)N/N=C/c3sc4ccccc4c3O)ccc2c1	7.3
COc1ccc(CCNc2ncnc3sccc23)cc1OC	1.13
C=CCn1cc(/C=C/c2cc[n+](C)cc2)c2ccccc21	4.63
CCCCCCOc1ccc(CN2CCN(C)CC2)cc1	11
CCn1c(=NC(=O)CCS(=O)(=O)c2ccccc2)sc2cccc(OC)c21	7.2
COc1ccc(CC(=O)Nc2ccncc2Cl)cc1	10.6
Cc1cc(C)c(S(=O)(=O)/N=C2/C=C(Sc3ncn[nH]3)C(=O)c3ccccc32)cc1C	7.58
O=C(NCc1cccnc1)c1ccc(-c2cc3ccccc3oc2=O)cc1	5.35
CC(C)N=c1cc2n(-c3ccc(Cl)cc3)c3ccccc3nc-2cc1Nc1ccc(Cl)cc1	6.69
COc1ccc(-c2nn(-c3ccccc3)cc2C(=O)OCC(=O)c2ccc(C)c([N+](=O)[O-])c2)cc1	0.866
C=CCSc1nc2ccccc2n1C(=O)/C=C/c1ccc(OC)c(OC)c1	11
C/C(=N\NC(=O)c1cccc(Br)c1)c1ccccn1	1.32
CC(C)C[C@H]1CN=C(Nc2ccccc2)N1CC1CCC(C(C)(C)C)CC1 (stereo not given in full)	8.6
Cc1cc(NC2CCCCC2)nc(NCc2ccccc2)n1	3.71
CC(=O)c1c(C)[nH]c(C(=O)OCc2cccc(Cl)c2)c1C	25.4
Cn1cc(/C=C/c2cc[n+](C)cc2)c2cc(Cl)ccc21	4.85
O=C1C(Cl)=C(NCc2cccnc2)C(=O)c2ccccc21	14.3
Cc1cc2nc(-c3ccc[nH]c3=O)[nH]c2cc1C	2.42
Cc1ccc(Nc2nc(NCc3ccco3)c3ccccc3n2)cc1	8.02
NC1=C(Br)C(=O)c2ccccc2C1=O	18.2
CCCC(=O)NC(c1ccc(C)cc1)c1ccc2cccnc2c1O (stereo not given)	1.99
O=C(CN1CCOCC1)N/N=C/c1c(O)ccc2ccccc12	16.1
CCOc1cccc(/C=N/NC(=O)c2ccc3c(c2)OCCO3)c1O	8.21
COc1cc(/C=C(/C(=O)c2cccs2)c2nc3ccccc3[nH]2)ccc1O	12.9
CCOC(=O)c1c(CSc2nc(C)cc(C)c2C#N)n(C)c2cc(Br)c(OC(C)=O)cc12	3.73
